Calls of active or inactive are those of the source. The rule behind the calls is not given here.
How the values were obtained:
MCF7 [1] = assay: Effect on BG4 protein expression in human MCF7 cells up to 1.5 uM by Western blot method; format: ADME, cell-based
Homo sapiens [2] = organism: Homo sapiens; assay: Binding affinity to human 5'-AGGAGCCGCAGCCGGAAGAGGAGAGGGGGCCGC-3' DNA at 1 uM after 24 hrs by spectrophotometric method
Homo sapiens [3] = organism: Homo sapiens; assay: Destabilization of human internal ribosome entry site A RNA G-quadruplex by CD spectral analysis
MCF7 [4] = assay: Cytotoxicity against human MCF7 cells assessed as reduction in cell viability; format: cell-based
[5] = Inhibition of NT-647 dye-labeled BG4 binding to human wild type internal ribosome entry site A RNA G-quadruplex assessed as BG4 antibody Kd by MST analysis (reference value: 10.8 nM)
MCF7 [6] = assay: Cytotoxicity against human MCF7 cells after 24 hrs relative to control; format: cell-based; conditions: mcf7, 24 h
Homo sapiens [7] = organism: Homo sapiens; assay: Selectivity ratio of Kd for biotin labeled human 5'-UGAUGAGUGUGAGGAGGA-3' RNA G-quadruplex to Kd for biotin-labeled human wild type internal ribosome entry site A RNA G-quadruplex
[8] = Binding affinity to c-MYC Pu27 DNA G-quadruplex (unknown origin) at 1 uM after 24 hrs by spectrophotometric method
Homo sapiens [9] = organism: Homo sapiens; assay: Destabilization of human wild type internal ribosome entry site A RNA G-quadruplex assessed as melting temperature at 5 uM by CD spectra method (reference value: 80.9 +/- 0.8 degreeC)
[10] = Binding affinity to RNA (unknown origin) at 1 uM after 24 hrs by spectrophotometric method
Homo sapiens [11] = organism: Homo sapiens; assay: Inhibition of BG4 protein binding to human wild type internal ribosome entry site A RNA G-quadruplex in MCF7 cells transfected with pcDNA3.1-BG4 plasmid at 2.5 to 5 uM after 24 hrs by RT-PCR analysis; format: cell-based
[12] = Binding affinity to NRAS-RNA G-quadruplex (unknown origin) at 1 uM after 24 hrs by spectrophotometric method
Homo sapiens [13] = organism: Homo sapiens; assay: Destabilization of human 5'-UGAAGAGUGUGAGUAGUA-3' RNA expressed in MCF7 cells assessed as down regulation of VEGF-A translation at up to 1.5 uM after 24 hrs by dual-luciferase reporter gene assay; format: cell-based
Homo sapiens [14] = organism: Homo sapiens; assay: Binding affinity to internal ribosome entry site A RNA G-quadruplex region of VEGF-A protein in human MDA-MB-231 cells assessed as inhibition of VEGF-A protein induced cell migration at 0.5 to 8 uM after 4 hrs by RTCA method; format: cell-based
[15] = Binding affinity to TERRA RNA G-quadruplex (unknown origin) at 1 uM after 24 hrs by spectrophotometric method
Homo sapiens [16] = organism: Homo sapiens; assay: Destabilization of human wild type internal ribosome entry site A RNA G-quadruplex expression in human MCF7 cells assessed as decrease in VEGF-A protein expression at 0.1875 to 3 uM by Western blot analysis; format: cell-based
[17] = Binding affinity to TBA DNA G-quadruplex (unknown origin) at 1 uM after 24 hrs by spectrophotometric method
MCF7 [18] = assay: Antitumor activity against human MCF7 cells xenografted in nude Balb/c mouse assessed as reduction in tumor weight at 7.5 mg/kg, ip qd for 20 days relative to control; format: functional; parameters: scale not given: the % may be the effect or the level left
[19] = Binding affinity to BCL-2 RNA G-quadruplex (unknown origin) at 1 uM after 24 hrs by spectrophotometric method
Mus musculus = assay: Downregulation of VEGF-A expression in tumor of Balb/c mouse xenografted with human MCF7 cells at 7.5 mg/kg, ip qd for 20 days by immunohistochemical analysis; format: functional, organism-based
Homo sapiens [20] = organism: Homo sapiens; assay: Destabilization of human wild type 5'-FAM labeled internal ribosome entry site A RNA G-quadruplex at 2.5 to 10 uM measured after 3 hrs by electrophoresis mobility shift assay
Homo sapiens [21] = organism: Homo sapiens; assay: Destabilization of human 5'-UGAUGAGUGUGAGUAGUA-3' RNA expressed in MCF7 cells assessed as down regulation of VEGF-A translation at 0.1875 to 1.5 uM after 24 hrs by dual-luciferase reporter gene assay; format: cell-based
[22] = Binding affinity to biotin-labeled DNA hairpin (unknown origin) by SPR analysis
Homo sapiens [23] = organism: Homo sapiens; assay: Binding affinity to internal ribosome entry site A RNA G-quadruplex region of VEGF-A protein in CoCl2 treated human MCF7 cells assessed as VEGF-A protein induced cell migration at 3 uM preincubated for 48 hrs followed by VEGF-A protein addition measured after 12 hrs by cell scrape test relative to control
Homo sapiens [24] = organism: Homo sapiens; assay: Binding affinity to wild type human internal ribosome entry site A RNA G-quadruplex at 1 uM after 24 hrs by spectrophotometric method
Homo sapiens [25] = organism: Homo sapiens; assay: Binding affinity to internal ribosome entry site A RNA G-quadruplex region of VEGF-A protein in human MDA-MB-231 cells assessed as inhibition of VEGF-A protein induced cell migration at 0.5 to 8 uM after 10 hrs by RTCA method; format: cell-based
Homo sapiens [26] = organism: Homo sapiens; assay: Destabilization of wild type internal ribosome entry site A RNA G-quadruplex in CoCl2 treated human MCF7 cells assessed as decrease in VEGF-A protein expression at 0.1875 to 3 uM after 48 hrs by Western blot analysis
Homo sapiens [27] = organism: Homo sapiens; assay: Binding affinity to human 5'-UGAUGAGUGUGAGUAGUA-3' RNA at 1 uM after 24 hrs by spectrophotometric method
Homo sapiens [28] = organism: Homo sapiens; assay: Inhibition of NT-647 dye-labeled BG4 antibody binding to human 5'-UGAUGAGUGUGAGUAGUA-3' RNA by MST analysis
[29] = Binding affinity to ADAM10 RNA G-quadruplex (unknown origin) at 1 uM after 24 hrs by spectrophotometric method
Homo sapiens [30] = organism: Homo sapiens; assay: Destabilization of human wild type internal ribosome entry site A RNA G-quadruplex expressed in human MCF7 cells assessed as decrease in VEGF-A protein expression at 1.5 uM after 48 hrs by ELISA relative to control; format: cell-based; parameters: scale not given: the % may be the effect or the level left
[31] = Binding affinity to C-kit 1 DNA G-quadruplex (unknown origin) at 1 uM after 24 hrs by spectrophotometric method
Homo sapiens [32] = organism: Homo sapiens; assay: Destabilization of human VEGF-A promoter DNA up to 5 uM by CD spectral analysis
[33] = Binding affinity to 5'- FAM-labeled 5'-GGAGGAGGGGGAGGAGGA-3' DNA (unknown origin) up to 60 uM after 5 mins by MST analysis
Homo sapiens [34] = organism: Homo sapiens; assay: Destabilization of human wild type internal ribosome entry site A RNA G-quadruplex expressed in MCF7 cells assessed as down regulation of VEGF-A translation at 1.5 uM after 24 hrs by dual-luciferase reporter gene assay relative to control; format: cell-based
MCF7 [35] = assay: Effect on human VEGF-A transcription expressed in human MCF7 cells assessed as Met luciferase gene expression at 0.1875 to 3 uM by qRT-PCR analysis; format: functional, cell-based
Homo sapiens [36] = organism: Homo sapiens; assay: Inhibition of BG4 antibody binding to internal ribosome entry site A RNA G-quadruplex in human MCF7 cells preincubated for 24 hrs followed by BG4 antibody addition measured after 12 hrs by dot blot hybridization assay; format: cell-based

**Q.** With `CCN(CC)CCOc1ccc(Nc2nc(-c3ccccc3NC(=O)CCN3CCN(C)CC3)nc3ccccc23)cc1` as the compound, how does the Activity (MCF7 [1]) read?
**A.** Non-Toxic

**Q.** What about the Activity (Homo sapiens [2]) of the same compound?
**A.** inactive

**Q.** What about the Activity (Homo sapiens [3]) of the same compound?
**A.** Dose-dependent effect

**Q.** And the IC50 (MCF7 [4])?
**A.** 12.5 µM

**Q.** And the Kd [5]?
**A.** 4.64 µM

**Q.** What about the Activity (MCF7 [6]) of the same compound?
**A.** 65.5%

**Q.** What about the Selectivity ratio (Homo sapiens [7]) of the same compound?
**A.** 4

**Q.** And the Activity [8]?
**A.** inactive

**Q.** What about the Tm (Homo sapiens [9]) of the same compound?
**A.** 62.2 °C

**Q.** What about the Activity [10] of the same compound?
**A.** inactive

**Q.** And the inhibition (Homo sapiens [11])?
**A.** Active

**Q.** And the Activity [12]?
**A.** inactive

**Q.** What about the Activity (Homo sapiens [13]) of the same compound?
**A.** inactive

**Q.** What about the Activity (Homo sapiens [14]) of the same compound?
**A.** Active

**Q.** And the Activity [15]?
**A.** inactive

**Q.** What about the Activity (Homo sapiens [16]) of the same compound?
**A.** Active

**Q.** What about the Activity [17] of the same compound?
**A.** inactive

**Q.** And the Activity (MCF7 [18])?
**A.** 60.1%

**Q.** What about the Activity [19] of the same compound?
**A.** inactive

**Q.** What about the Activity (Mus musculus) of the same compound?
**A.** Active

**Q.** What about the Activity (Homo sapiens [20]) of the same compound?
**A.** Active

**Q.** What about the Activity (Homo sapiens [21]) of the same compound?
**A.** inactive

**Q.** And the Kd [22]?
**A.** 21.2 µM

**Q.** And the Activity (Homo sapiens [23])?
**A.** 35%

**Q.** And the Activity (Homo sapiens [24])?
**A.** Active

**Q.** What about the Activity (Homo sapiens [25]) of the same compound?
**A.** inactive

**Q.** What about the Activity (Homo sapiens [26]) of the same compound?
**A.** Dose-dependent effect

**Q.** What about the Activity (Homo sapiens [27]) of the same compound?
**A.** inactive

**Q.** What about the inhibition (Homo sapiens [28]) of the same compound?
**A.** Active

**Q.** And the Activity [29]?
**A.** inactive

**Q.** And the Activity (Homo sapiens [30])?
**A.** 75%

**Q.** What about the Activity [31] of the same compound?
**A.** inactive

**Q.** What about the Activity (Homo sapiens [32]) of the same compound?
**A.** Active

**Q.** And the Activity [33]?
**A.** Active

**Q.** And the Activity (Homo sapiens [34])?
**A.** 80%

**Q.** What about the Activity (MCF7 [35]) of the same compound?
**A.** inactive

**Q.** And the inhibition (Homo sapiens [36])?
**A.** Dose-dependent effect

Source: ChEMBL document CHEMBL4014333, “Discovery of Small Molecules for Repressing Cap-Independent Translation of Human Vascular Endothelial Growth Factor (hVEGF) as Novel Antitumor Agents” (J Med Chem, 2017)
